# Laboratory results: US20050090524A1, “Novel adamantane derivatives” (priority 2002, published 2005)
# Structures can show the parent of a compound that is named as a salt.
row,Structure (SMILES),melting point
1,O=C(CC12CC3CC(CC(C3)C1)C2)Nc1c(Cl)ccc2nc(CN3CCNCC3)ccc12 (as salt: trifluoroacetate),132 to 136 °C
2,Cc1ccc2nc(N3CCC(N)CC3)ccc2c1NC(=O)CC12CC3CC(CC(C3)C1)C2 (as salt: hydrochloride),295 °C
3,CNCCNc1ccc2c(NC(=O)CC34CC5CC(CC(C5)C3)C4)c(Cl)ccc2n1 (as salt: hydrochloride),232 to 234 °C
4,"O=C(CC12CC3CC(CC(C3)C1)C2)Nc1c(Cl)ccc2nc(N3CCNCC3)ccc12 (as salt: hydrochloride) [Example 207, 2-(1-Adamantyl)-N-(6-chloro-2-piperazin-1-ylquinolin-5-yl)acetamide]",280 to 283 °C
5,"Cc1ccc2nc(NCCO)ccc2c1NC(=O)CC12CC3CC(CC(C3)C1)C2 (as salt: trifluoroacetic acid salt) [Example 13, 2-(1-Adamantyl)-N-{2[(2-hydroxyethyl)amino]-6-methylquinolin-5-yl}acetamide]",103 to 107 °C
6,"O=C(NCC12CC3CC(CC(C3)C1)C2)c1cc(CCCNCCCO)nc2ccccc12 (as salt: salt) [Example 168, N-(1-Adamantylmethyl)-2-{3-[(3-hydroxypropyl)amino]propyl}quinoline-4-carboxamide Benzoic Acid Salt]",147 to 148 °C (dec.)
7,CNCCCc1cccc2c(C(=O)NCC34CC5CC(CC(C5)C3)C4)ccnc12 (as salt: hydrochloride),243 to 246 °C (dec.)
8,O=C(NCC12CC3CC(CC(C3)C1)C2)c1cccc2ncccc12 (as salt: trifluoroacetate),125 to 127 °C (dec.)
9,O=C(NCC12CC3CC(CC(C3)C1)C2)c1cccc2nc(CCCNCCCO)ccc12 (as salt: hydrochloride),150 to 152 °C
10,O=C(CC12CC3CC(CC(C3)C1)C2)Nc1c(Cl)ccc2nc(CC[C@@H](O)CO)ccc12 (as salt: hydrochloride),147 to 150 °C
11,Cc1ccc2nc(N3CCN(CCO)CC3)ccc2c1NC(=O)CC12CC3CC(CC(C3)C1)C2 (as salt: hydrochloride),224 °C
12,"O=C(NCC12CC3CC(CC(C3)C1)C2)c1c(Cl)ccc2nc(CN3CCNCC3)ccc12 (as salt: hydrochloride) [Example 170, N-(1-Adamantylmethyl)-6-chloro-2-(piperazin-1-ylmethyl)quinoline-5-carboxamide Hydrochloride]",208 °C (dec.)
13,"Cc1ccc2nc(N3CCC(NCCO)CC3)ccc2c1NC(=O)CC12CC3CC(CC(C3)C1)C2 (as salt: hydrochloride) [Example 181, 2-(1-Adamantyl)-N-(2-{4-[(2-hydroxyethyl)amino]piperidin-1-yl}-6-methylquinolin-5-yl)acetamide Dihydrochloride]",306 °C
14,"CCNCCCc1ccc2c(C(=O)NCC34CC5CC(CC(C5)C3)C4)cccc2n1 (as salt: hydrochloride) [Example 173, N-(1-Adamantylmethyl)-2-[3-(ethylamino)propyl]quinoline-5-carboxamide Dihydrochloride]",150 to 155 °C
15,"CNCCCc1ccc2c(C(=O)NCC34CC5CC(CC(C5)C3)C4)c(Cl)ccc2n1 (as salt: hydrochloride) [Example 167, N-(1-Adamantylmethyl)-6-chloro-2-[3-(methylamino)propyl]quinoline-5-carboxamide Sesquihydrochloride]",184 to 185 °C
16,Cc1ccc2nc(N3CC[C@H](N)C3)ccc2c1NC(=O)CC12CC3CC(CC(C3)C1)C2 (as salt: hydrochloride),291 °C
17,O=C(CC12CC3CC(CC(C3)C1)C2)Nc1c(Cl)ccc2nc(NCCNCCO)ccc12 (as salt: hydrochloride),219 to 223 °C
18,CNCCCc1ccc2c(C(=O)NCC34CC5CC(CC(C5)C3)C4)cccc2n1 (as salt: hydrochloride),158 to 160 °C
19,"Cc1ccc2nc(NCCCO)ccc2c1NC(=O)CC12CC3CC(CC(C3)C1)C2 [Example 12, 2(1-Adamantyl)-N-{2-[(3-hydroxypropyl)amino]-6-methylquinolin-5-yl}acetamide]",168 to 174 °C
20,"CNCCCN(C)c1ccc2c(C(=O)NCC34CC5CC(CC(C5)C3)C4)c(Cl)ccc2n1 (as salt: TFA) [Example 208, N-(1-Adamantylmethyl)-6-chloro-2-{methyl[3-(methylamino)propyl]amino}quinoline-5-carboxamide]",195 to 200 °C
21,"O=C(CC12CC3CC(CC(C3)C1)C2)Nc1cccc2nc(CCCNCCCO)ccc12 (as salt: hydrochloride) [Example 177, 2-(1-Adamantyl)-N-(2-{3-[(3-hydroxypropyl)amino]propyl}quinolin-5-yl)acetamide Dihydrochloride]",130 to 135 °C
22,Cc1ccc2nc(N3CC[C@H](NC(=O)N4CC[C@H](N)C4)C3)ccc2c1NC(=O)CC12CC3CC(CC(C3)C1)C2 (as salt: hydrochloride),270 °C
23,O=C(CC12CC3CC(CC(C3)C1)C2)Nc1c(Cl)ccc2nc(NCCCNCCO)ccc12 (as salt: hydrochloride),264 to 266 °C
24,"CNCCCNc1ccc2c(NC(=O)CC34CC5CC(CC(C5)C3)C4)c(C)ccc2n1 [Example 204, 2-(1-Adamantyl)-N-(6-methyl-2-{[3-(methylamino)propyl]amino}quinolin-5-yl)acetamide]",217 to 224 °C
25,"Cc1ccc2nc(N3CCNCC3)ccc2c1NC(=O)CC12CC3CC(CC(C3)C1)C2 (as salt: hydrochloride) [Example 178, 2-(1-Adamantyl)-N-(6methyl-2-piperazin-1-ylquinolin-5-yl)acetamide Dihydrochloride]",276 °C
26,"O=C(CC12CC3CC(CC(C3)C1)C2)Nc1c(Cl)ccc2ncccc12 [Example 5, 2-(1-Adamantyl)-N-(6-chloroquinolin-5-yl)acetamide]",219 to 220 °C
27,"Cc1ccc2nc(N(C)CCN(C)C)ccc2c1NC(=O)CC12CC3CC(CC(C3)C1)C2 (as salt: trifluoroacetic acid salt) [Example 14, 2-(1-Adamantyl)-N-{2-[[2-(dimethylamino)ethyl](methyl)amino]-6-methylquinolin-5-yl}acetamide]",193 to 195 °C
28,Cc1ccc2nc(NCCNCCO)ccc2c1NC(=O)CC12CC3CC(CC(C3)C1)C2 (as salt: hydrochloride),227 to 230 °C
29,O=C(CC12CC3CC(CC(C3)C1)C2)Nc1c(Cl)ccc2nc(CN[C@@H]3CCNC3)ccc12 (as salt: trifluoroacetate),90 to 91 °C
